The values below are quoted from earlier work in patent US11129815B2, “Solid dispersions comprising tacrolimus” (Veloxis Pharmaceuticals A/S, priority 2003, dated 2021).

Test in data set [1]: not given
This is another data set of the same source.

A value given as a limit tells only on which side of the number the result lay.

For orientation: bioavailability means dose-corrected exposure relative to a reference, in per cent. As to `C=CC[C@@H]1/C=C(\C)C[C@H](C)C[C@H](OC)[C@H]2O[C@@](O)(C(=O)C(=O)N3CCCC[C@H]3C(=O)O[C@H](/C(C)=C/[C@@H]3CC[C@@H](O)[C@H](OC)C3)[C@H](C)[C@@H](O)CC1=O)[C@H](C)C[C@@H]2OC` [Tacrolimus], the solubility in chloroform entry (chloroform) is listed as “very soluble”. Moreover, the solubility in ethanol result (ethanol) was “freely soluble”. In addition, the solubility in methanol entry (methanol) is listed as “very soluble”. The solubility in water result (water) is “practically insoluble”. Besides, the bioavailability in data set [1] (after oral administration) is ≤ 20%. Besides, the “mean time-to-peak concentration (tmax)” value in data set [1] (oral administration, healthy subjects or kidney or liver transplanted patients) was 1 to 2 h.
